Laboratory results: ChEMBL document CHEMBL5113503, “Synthesis and biological evaluation of 4-(4-aminophenyl)-6-methylisoxazolo[3,4-b] pyridin-3-amine covalent inhibitors as potential agents for the treatment of acute myeloid leukemia” (Bioorg Med Chem, 2022)

Key:
[1] = system: MV4-11; assay: Antiproliferative activity against human MV4-11 cells harboring FLT3-ITD mutant assessed as cell growth inhibition measured after 72 hrs by CCK8 assay; conditions: MV4-11, 72 h
[2] = system: HepG2; assay: Antiproliferative activity human HepG2 cells assessed as cell growth inhibition measured after 72 hrs by CCK8 assay; conditions: HepG2, 72 h
[3] = system: MOLM-13; assay: Antiproliferative activity against human MOLM-13 cells harboring FLT3-ITD mutant assessed as cell growth inhibition measured after 72 hrs by CCK8 assay; conditions: MOLM-13, 72 h
[4] = system: HL-60; assay: Antiproliferative activity against human HL-60 cells harboring wildtype FLT3 assessed as cell growth inhibition measured after 72 hrs by CCK8 assay; conditions: HL-60, 72 h
[5] = Cytotoxicity against human K562 cells assessed as cell growth inhibition measured after 72 hrs by CCK8 assay; format: toxicity, cell-based
[6] = system: A549; assay: Antiproliferative activity human A549 cells assessed as cell growth inhibition measured after 72 hrs by CCK8 assay; conditions: A549, 72 h
[7] = Cytotoxicity against HUVEC cells assessed as cell growth inhibition measured after 72 hrs by CCK8 assay; format: toxicity, cell-based; conditions: human
[8] = system: MV4-11; assay: Induction of apoptosis in human MV4-11 cells assessed as late apoptotic cells at 0.1 uM measured after 48 hrs by Annexin V-FITC/PI double staining based flow cytometric analysis (reference value: 12.03 %); format: functional
[9] = system: MV4-11; assay: Induction of apoptosis in human MV4-11 cells assessed as early apoptotic cells at 0.1 uM measured after 48 hrs by Annexin V-FITC/PI double staining based flow cytometric analysis (reference value: 2.04 %); format: functional
[10] = system: MV4-11; assay: Induction of apoptosis in human MV4-11 cells assessed as necrotic cells at 0.1 uM measured after 48 hrs by Annexin V-FITC/PI double staining based flow cytometric analysis (reference value: 5.67 %); format: functional
[11] = system: MV4-11; assay: Induction of apoptosis in human MV4-11 cells assessed as viable cells at 0.1 uM measured after 48 hrs by Annexin V-FITC/PI double staining based flow cytometric analysis (reference value: 80.26 %); format: functional; conditions: read-out: Activity

Which IC50 [1] does the source give for `C=CC(=O)Nc1ccc(C(=O)Nc2ccc(-c3cc(C)nc4noc(N)c34)cc2)cc1F` here?
The IC50 was over 10 µM.

And the IC50 [2]?
Its IC50 is over 10 µM.

And the IC50 [3]?
Its IC50 is over 10 µM.

And the IC50 [4]?
The IC50 was over 10 µM.

And the IC50 at 72 h [5]?
Its IC50 at 72 h is over 10 µM.

What about the IC50 [6] of the same compound?
Its IC50 is over 10 µM.

And the IC50 at 72 h [7]?
Its IC50 at 72 h is over 10 µM.

For `C=CC(=O)Nc1ccc(C(=O)Nc2ccc(-c3cc(C)nc4noc(N)c34)cc2)cc1Cl`, which IC50 [1] is on record?
The IC50 was 0.675 µM.

What about the IC50 [2] of the same compound?
The IC50 was 2.61 µM.

And the IC50 [3]?
Its IC50 is 3.76 µM.

And the IC50 [4]?
The IC50 was 0.307 µM.

What about the IC50 at 72 h [5] of the same compound?
Its IC50 at 72 h is 7.52 µM.

What about the IC50 [6] of the same compound?
The IC50 was 5.54 µM.

And the IC50 at 72 h [7]?
The IC50 at 72 h was 2.65 µM.

For `C=CC(=O)Nc1ccc(CC(=O)Nc2ccc(-c3cc(C)nc4noc(N)c34)cc2)cc1`, which IC50 [1] is on record?
The IC50 was 2.17 µM.

And the IC50 [2]?
Its IC50 is over 10 µM.

What about the IC50 [3] of the same compound?
Its IC50 is 6.23 µM.

And the IC50 [4]?
Its IC50 is 8.53 µM.

What about the IC50 at 72 h [5] of the same compound?
The IC50 at 72 h was over 10 µM.

What about the IC50 [6] of the same compound?
Its IC50 is over 10 µM.

What about the IC50 at 72 h [7] of the same compound?
The IC50 at 72 h was over 10 µM.

For `C=CC(=O)Nc1ccc(C(=O)Nc2ccc(-c3cc(C)nc4noc(N)c34)cc2)cc1Br`, which IC50 [1] is on record?
Its IC50 is 1.22 µM.

And the IC50 [2]?
The IC50 was 2.68 µM.

What about the IC50 [3] of the same compound?
Its IC50 is 7.35 µM.

And the IC50 [4]?
The IC50 was 0.601 µM.

What about the IC50 at 72 h [5] of the same compound?
Its IC50 at 72 h is over 10 µM.

And the IC50 [6]?
Its IC50 is over 10 µM.

And the IC50 at 72 h [7]?
Its IC50 at 72 h is over 10 µM.

What does the source list for `C=CC(=O)Nc1ccc(C(=O)Nc2ccc(-c3cc(C)nc4noc(N)c34)cc2)cc1`?
IC50 [1]: 1.59 µM; IC50 [2]: > 10 µM; IC50 [3]: 4.78 µM; IC50 [4]: 4.4 µM; IC50 at 72 h [5]: > 10 µM; IC50 [6]: > 10 µM; IC50 at 72 h [7]: > 10 µM

With `C=CC(=O)Nc1cccc(CC(=O)Nc2ccc(-c3cc(C)nc4noc(N)c34)cc2)c1` as the compound, how does the IC50 [1] read?
The IC50 was 1.26 µM.

And the IC50 [2]?
Its IC50 is over 10 µM.

And the IC50 [3]?
The IC50 was 2.52 µM.

What about the IC50 [4] of the same compound?
Its IC50 is 7.39 µM.

What about the IC50 at 72 h [5] of the same compound?
Its IC50 at 72 h is over 10 µM.

And the IC50 [6]?
Its IC50 is over 10 µM.

And the IC50 at 72 h [7]?
The IC50 at 72 h was over 10 µM.

Which results are given for `C=CC(=O)Nc1ccc(C(=O)Nc2ccc(-c3cc(C)nc4noc(N)c34)cc2)cc1C`?
IC50 [1]: 3.33 µM; IC50 [2]: 2.27 µM; IC50 [3]: > 10 µM; IC50 [4]: 0.448 µM; IC50 at 72 h [5]: 2.77 µM; IC50 [6]: > 10 µM; IC50 at 72 h [7]: 3.23 µM

For `Cc1cc(-c2ccc(NC(=O)Nc3ccc(Cl)c(C(F)(F)F)c3)cc2)c2c(N)onc2n1`, which IC50 [1] is on record?
The IC50 was 0.00089 µM.

And the IC50 [2]?
Its IC50 is over 10 µM.

What about the IC50 [3] of the same compound?
Its IC50 is 0.0046 µM.

And the IC50 [4]?
The IC50 was over 10 µM.

And the IC50 at 72 h [5]?
Its IC50 at 72 h is 1.73 µM.

What about the IC50 [6] of the same compound?
Its IC50 is 7.31 µM.

What about the IC50 at 72 h [7] of the same compound?
The IC50 at 72 h was over 10 µM.

For `C=CC(=O)Nc1ccc(C(=O)Nc2ccc(-c3cc(C)nc4noc(N)c34)cc2)c(C(F)(F)F)c1`, which IC50 [1] is on record?
The IC50 was 9.18 µM.

What about the IC50 [2] of the same compound?
The IC50 was over 10 µM.

And the IC50 [3]?
The IC50 was 6.9 µM.

What about the IC50 [4] of the same compound?
Its IC50 is 3.68 µM.

And the IC50 at 72 h [5]?
The IC50 at 72 h was over 10 µM.

And the IC50 [6]?
The IC50 was over 10 µM.

What about the IC50 at 72 h [7] of the same compound?
Its IC50 at 72 h is over 10 µM.

With `C=CS(=O)(=O)Nc1ccc(C(=O)Nc2ccc(-c3cc(C)nc4noc(N)c34)cc2)cc1` as the compound, how does the IC50 [1] read?
Its IC50 is 2.55 µM.

What about the IC50 [2] of the same compound?
The IC50 was over 10 µM.

And the IC50 [3]?
Its IC50 is over 10 µM.

And the IC50 [4]?
The IC50 was over 10 µM.

And the IC50 at 72 h [5]?
The IC50 at 72 h was over 10 µM.

And the IC50 [6]?
Its IC50 is over 10 µM.

What about the IC50 at 72 h [7] of the same compound?
Its IC50 at 72 h is over 10 µM.

For `C=CC(=O)N1CCC(C(=O)Nc2ccc(-c3cc(C)nc4noc(N)c34)cc2)CC1`, which IC50 [1] is on record?
The IC50 was over 10 µM.

And the IC50 [2]?
Its IC50 is over 10 µM.

And the IC50 [3]?
The IC50 was over 10 µM.

And the IC50 [4]?
The IC50 was over 10 µM.

What about the IC50 at 72 h [5] of the same compound?
Its IC50 at 72 h is over 10 µM.

And the IC50 [6]?
The IC50 was over 10 µM.

And the IC50 at 72 h [7]?
The IC50 at 72 h was over 10 µM.

Which IC50 [1] does the source give for `C=CC(=O)Nc1cccc(NC(=O)Nc2ccc(-c3cc(C)nc4noc(N)c34)cc2)c1` here?
Its IC50 is 1.04 µM.

What about the IC50 [2] of the same compound?
Its IC50 is over 10 µM.

What about the IC50 [3] of the same compound?
Its IC50 is 2.27 µM.

What about the IC50 [4] of the same compound?
Its IC50 is over 10 µM.

What about the IC50 at 72 h [5] of the same compound?
Its IC50 at 72 h is over 10 µM.

And the IC50 [6]?
The IC50 was over 10 µM.

What about the IC50 at 72 h [7] of the same compound?
The IC50 at 72 h was over 10 µM.

With `C=CC(=O)Nc1ccc(C(=O)Nc2ccc(-c3cc(C)nc4noc(N)c34)cc2)cc1OC` as the compound, how does the IC50 [1] read?
The IC50 was 4.79 µM.

And the IC50 [2]?
Its IC50 is over 10 µM.

What about the IC50 [3] of the same compound?
The IC50 was over 10 µM.

What about the IC50 [4] of the same compound?
The IC50 was over 10 µM.

What about the IC50 at 72 h [5] of the same compound?
The IC50 at 72 h was over 10 µM.

And the IC50 [6]?
The IC50 was over 10 µM.

What about the IC50 at 72 h [7] of the same compound?
The IC50 at 72 h was over 10 µM.

Which results are given for `Cc1ccc(F)c(NC(=O)Nc2ccc(-c3cccc4[nH]nc(N)c34)cc2)c1` [LINIFANIB]?
IC50 [1]: 0.0034 µM; IC50 [2]: 4 µM; Activity [8]: 50.7%; Activity [9]: 0.55%; IC50 [3]: 0.019 µM; IC50 [4]: 7.88 µM; IC50 at 72 h [5]: 6.96 µM; Activity [10]: 15.38%; IC50 [6]: 8.34 µM; IC50 at 72 h [7]: 4.92 µM; viability at 0.1 µM [11]: 33.4%

What does the source list for `C=CC(=O)Nc1cccc(C(=O)Nc2ccc(-c3cc(C)nc4noc(N)c34)cc2)c1`?
IC50 [1]: 0.348 µM; IC50 [2]: 7.62 µM; IC50 [3]: 0.703 µM; IC50 [4]: 3.95 µM; IC50 at 72 h [5]: > 10 µM; IC50 [6]: > 10 µM; IC50 at 72 h [7]: > 10 µM

Which IC50 [1] does the source give for `C=CC(=O)Nc1ccc(CCC(=O)Nc2ccc(-c3cc(C)nc4noc(N)c34)cc2)cc1` here?
The IC50 was 1.34 µM.

And the IC50 [2]?
The IC50 was over 10 µM.

And the IC50 [3]?
Its IC50 is 7.42 µM.

What about the IC50 [4] of the same compound?
Its IC50 is over 10 µM.

What about the IC50 at 72 h [5] of the same compound?
The IC50 at 72 h was over 10 µM.

And the IC50 [6]?
Its IC50 is over 10 µM.

And the IC50 at 72 h [7]?
The IC50 at 72 h was over 10 µM.
